Assay results from patent publication US20190328825A1, “METHODS FOR TREATING AUTISM SPECTRUM DISORDER AND ASSOCIATED SYMPTOMS” (Arizona Board of Regents on behalf of Arizona State …, priority 2015, published 2019).

Columns and labels:
children with ASD [1] = assay: Toleration of study medications / adverse effects
Source text: The participants were given oral vancomycin (a non-absorbable broad spectrum antibiotic that stays in the GI tract) for 2 weeks to reduce levels of pathogenic bacteria, and then 1 day of low-volume colonoscopy prep MoviPrep® (a drink that flushes the bowels, to remove most remaining gut bacteria and vancomycin) to clear the residual vancomycin and feces. The vancomycin was intended to kill off harmful bacteria, the fasting was intended to remove any remaining bacteria and to minimize other luminal fecal material, and the colon cleanse helped remove the vancomycin and cleanse the lower GI Tract.
The rectal dose was administered under the direct supervision of the study physician, and the first oral dose was similarly administered in the presence of the physician. Participants were randomly assigned to either the oral or rectal route of administration. If one administration route was not tolerated, or if the family preferred the other route, then participants had the option of trying the other route. For the participants with initial oral dose, a lower oral maintenance dose (2.5×10^9 CFU) was followed for 8 weeks right after the major oral initial dose. Whereas, the major rectal initial dose was followed by waiting period of 1 week followed by a lower oral maintenance dose (2.5×10^9 CFU) for 7 weeks. The maintenance SHGM dose were self-administered orally every day up to week 10. After treatment was stopped, participants were monitored for another 8 weeks.
Prilosec (omeprazole) was administered daily to reduce stomach acid and thereby increase viability of the MTT, starting on the 12th day of oral vancomycin treatment and continuing until the end of the maintenance dose.

children with ASD [2] = assay: Complete Blood Count / blood chemistry panel; assay type: in vivo, human
Source text: The following minor changes were observed. There was a 5% decrease in potassium (p=0.01) from beginning to end of treatment, but all levels remain in the normal range. After the vancomycin (2nd week of study), there was a 8% increase in platelets (p=0.03). Four subjects had elevated levels at start, and only 2 had elevated levels after vancomycin. There was a 26% drop in blood urea nitrogen (BUN) (p=0.002), but all stayed in normal range. There was a 6% increase in albumin to globulin (A/G) ratio (p=0.03), with 1 slightly elevated. There was a 17% increase in aspartate amino transferase (AST) (p=0.01), but all remained in normal range. There was a 24% increase in alanine amino transferase (ALT) (p=0.003), where 1 remained elevated and 2 became slightly elevated. […] Slight changes (1-2%) in red blood cell indices (Mean corpuscular volume (MCV), Mean corpuscular hemoglobin (MCH), Mean corpuscular hemoglobin concentration (MCHC), and Red cell distribution width (RDW)) were observed.

[3] = human, in vivo, 40 mg/kg per day

Compound | duration of behavioral reaction in most cases (children with ASD [1]; [3]) [days] | onset of behavioral reaction after start of vancomycin (children with ASD [1]; [3]) [days] | severity of behavioral symptoms (children with ASD [1]; hyperactivity, tantrumming/aggression) | duration of behavioral symptoms in 1 participant (children with ASD [1]; longest case) [weeks] | children developing rash (children with ASD [1]; oral vancomycin with natural orange flavor, 18 children) | adverse effects overall (children with ASD [1]; primarily mild to moderate hyperactivity and tantrums/aggression) | cases of increased hyperactivity (children with ASD [1]; temporary, start of vancomycin) | cases of increased tantrums/aggression (children with ASD [1]; temporary, start of vancomycin) | platelets, BUN, A/G, AST, ALT (children with ASD [2]; 3rd and 4th tests) | increase in alanine amino transferase (ALT) (children with ASD [2]; after the vancomycin) [%] | increase in albumin to globulin (A/G) ratio (children with ASD [2]; after the vancomycin) [%] | increase in platelets (children with ASD [2]; after the vancomycin (2nd week of study)) [%] | increase in aspartate amino transferase (AST) (children with ASD [2]; after the vancomycin, all remained in normal range) [%] | drop in blood urea nitrogen (BUN) (children with ASD [2]; after the vancomycin, all stayed in normal range) [%] | toleration of study medication (children with ASD [1]; in vivo)
CN[C@H](CC(C)C)C(=O)N[C@H]1C(=O)N[C@@H](CC(N)=O)C(=O)N[C@H]2C(=O)N[C@H]3C(=O)N[C@H](C(=O)N[C@H](C(=O)O)c4cc(O)cc(O)c4-c4cc3ccc4O)[C@H](O)c3ccc(c(Cl)c3)Oc3cc2cc(c3O[C@@H]2O[C@H](CO)[C@@H](O)[C@H](O)[C@H]2O[C@H]2C[C@](C)(N)[C@H](O)[C@H](C)O2)Oc2ccc(cc2Cl)[C@H]1O [vancomycin] | 1 to 3 | 1 to 4 | mild to moderate | 3 | One and one | only temporary adverse effects | 7 | 5 | returned to similar to baseline | 24 | 6 | 8 | 17 | 26 | –
COc1ccc2[nH]c([S+]([O-])Cc3ncc(C)c(OC)c3C)nc2c1 (stereo not drawn) [Prilosec, omeprazole] | – | – | – | – | – | – | – | – | – | – | – | – | – | – | generally well-tolerated
